Results on 1 compound are retold here after ChEMBL document CHEMBL3856231 (J Med Chem, 2016).

Data set [1] in a line: Antitumor activity against human CTG-0785 cells expressing activated FAK xenografted in mouse assessed as tumor growth inhibition at 55 mg/kg, po bid administered for 13 days measured during compound dosing. It counts as functional. The conditions noted are these: CTG-0785, po, 312 h, read-out: TGI. Background: A xenograft is tissue or cells of one species grown in another, often human tumour cells in immunodeficient mice.

A short description of data set [2]: Cmax in cynomolgus monkey at 10 mg/kg, po by LC/MS/MS analysis. It counts as ADME, organism-based, Macaca fascicularis. Further details: dose 10 mg/kg, route oral. The following applies: in vivo.
Data set [3] is described as follows: Drug level in plasma of FAK expressing human CWR22 cells xenografted Nu/Nu mouse at 55 mg/kg, po administered as single dose measured at 12 hrs by LC-MS/MS analysis. Type of data set: ADME, organism-based.
Data set [4] is described as follows: Dose normalized AUC in Sprague-Dawley rat at 5 mg/kg, po by LC/MS/MS analysis. Type of data set: ADME, organism-based. The following applies: in vivo.
Data set [5] in a line: Tmax in CD-1 mouse at 10 mg/kg, po by LC/MS/MS analysis. It counts as ADME, organism-based. The conditions noted are these: in vivo.
A short description of data set [6]: Drug level in tumor of NPM-ALK expressing human SUP-M2 cells xenografted mouse at 30 mg/kg, po administered as single dose measured at 2 hrs by LC-MS/MS analysis. Type of data set: ADME, organism-based, Neoplasm. The conditions noted are these: read-out: Drug uptake.
Data set [7] can be described thus: Cmax in Sprague-Dawley rat brain at 30 mg/kg, po by LC/MS/MS analysis. Further details: dose 30 mg/kg, route oral. Type of data set: ADME, organism-based.

For orientation: Cmax means the peak of the concentration-time curve. In general, Tmax refers to the time at which the peak concentration occurs. Turning to `CNC(=O)c1ccccc1Nc1nc(Nc2ccc3c(c2OC)CCC[C@H](N2CCN(CCO)CC2)C3)ncc1Cl` [CEP-37440], the inhibition in vivo at 55 mg/kg in data set [1] was 70%. For the same compound, the values for the Cmax in data set [2] and in data set [7] were 239 ng/mL and 3160 ng/g, respectively. Also, the concentration at 12 h in data set [3] was determined as 541 ng/mL. Also, the AUC/dose in data set [4] was 1672 ng·h/mL. Moreover, the Tmax in data set [5] worked out at 2 h. The concentration at 2 h in data set [6] came to 6040 ng/g.
